According to patent publication US20140135310A1, “SULPHONAMIDE DERIVATIVES OF ALICYCLIC AMINES FOR THE TREATMENT OF CENTRAL NERVOUS SYSTEM DISEASES” (Adamed Sp. z o.o., priority 2011, published 2014):

Legend:
[1] = molecular target: T1, hERG potassium channels (KCNH2 gene, expressed in CHO cells) (Homo sapiens, UniProt Q12809); experiment: Ability to block hERG potassium channel (electrophysiology, IonWorks Quattro); assay type: cell-based; details: % block of hERG current, test compound 1×10^−5 M
T1 construct: expressed in transfected cells; host or cells: CHO cells
T1 sequence (Q12809 whole entry): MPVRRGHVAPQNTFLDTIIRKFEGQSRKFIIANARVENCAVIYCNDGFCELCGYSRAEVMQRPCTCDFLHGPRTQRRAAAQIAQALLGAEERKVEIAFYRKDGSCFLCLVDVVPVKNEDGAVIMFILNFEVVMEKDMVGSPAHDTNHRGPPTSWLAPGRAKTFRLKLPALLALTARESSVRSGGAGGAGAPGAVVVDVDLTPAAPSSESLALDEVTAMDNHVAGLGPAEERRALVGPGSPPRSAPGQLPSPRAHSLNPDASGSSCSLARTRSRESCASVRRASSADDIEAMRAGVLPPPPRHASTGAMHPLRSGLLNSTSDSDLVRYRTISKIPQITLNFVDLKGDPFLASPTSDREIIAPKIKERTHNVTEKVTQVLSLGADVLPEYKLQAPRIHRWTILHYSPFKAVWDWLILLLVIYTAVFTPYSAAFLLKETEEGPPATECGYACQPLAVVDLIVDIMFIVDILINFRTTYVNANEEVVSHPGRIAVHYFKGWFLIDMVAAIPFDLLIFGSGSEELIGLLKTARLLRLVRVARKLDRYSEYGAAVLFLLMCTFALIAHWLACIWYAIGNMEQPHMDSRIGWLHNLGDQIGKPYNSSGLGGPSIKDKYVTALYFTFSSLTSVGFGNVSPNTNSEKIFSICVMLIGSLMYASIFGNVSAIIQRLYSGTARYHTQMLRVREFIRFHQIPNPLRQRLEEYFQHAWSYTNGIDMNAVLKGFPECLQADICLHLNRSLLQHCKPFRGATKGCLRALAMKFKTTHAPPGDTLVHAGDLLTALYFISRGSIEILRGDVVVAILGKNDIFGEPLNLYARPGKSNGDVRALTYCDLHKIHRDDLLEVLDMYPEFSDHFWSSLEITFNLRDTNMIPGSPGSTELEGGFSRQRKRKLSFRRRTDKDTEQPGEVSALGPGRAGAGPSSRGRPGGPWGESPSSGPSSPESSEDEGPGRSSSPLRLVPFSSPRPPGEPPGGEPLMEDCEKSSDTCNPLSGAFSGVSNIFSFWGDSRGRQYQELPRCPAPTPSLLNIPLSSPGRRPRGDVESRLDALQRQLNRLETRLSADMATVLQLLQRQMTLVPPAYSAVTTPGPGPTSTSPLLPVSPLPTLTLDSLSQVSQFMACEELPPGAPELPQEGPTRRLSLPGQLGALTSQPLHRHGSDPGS
Method: Moreover, the ability of the compounds of the invention to block potassium channel hERG was tested.
Ability to block hERG potassium channels was determined using the electrophysiological method and cloned hERG potassium channels (KCNH2 gene, expressed in CHO cells) as biological material. The effects were evaluated using IonWorks™ Quattro system (MDS-AT).
hERG current was elicited using a pulse pattern with fixed amplitudes (conditioning pre-pulse: −80 mV for 25 ms; test pulse: +40 mV for 80 ms) from a holding potential of 0 mV. hERG current was measured as a difference between the peak current at 1 ms after the test step to +40 mV and the steady-state current at the end of the step to +40 mV.
Data acquisition and analyses was performed using the IonWorks Quattro™ system operation software (version 2.0.2; Molecular Devices Corporation, Union City, Calif.). Data were corrected for leak current.
The hERG block was calculated as:
% Block=(1−ITA/IControl)×100%,
where IControl and ITA were the currents elicited by the test pulse in control and in the presence of a test article, respectively.
Concentration-response data for the blocks were fit to an equation of the following form:
% Block=% VC+{(% PC−% VC)−(% PC−% VC)/[1+([Test]/IC50)N]},

[2] = tested on: dizocilpine-induced locomotor hyperactivity; experiment: Dizocilpine (MK-801)-induced locomotor hyperactivity in mice; assay type: in vivo; details: reversal of dizocilpine (MK-801)-induced hyperlocomotion, male CD-1 mice, i.p., 30 minutes before the experiment
Method: Potential antipsychotic activity was tested for the representative compounds in mouse model of psychosis, involving the induction of locomotor hyperactivity by administering psychotomimetic substance—dizocilpine. The ability of a test compound to remove this effect is a measure of potential antipsychotic activity.
Male CD-1 mice were group-housed for 2-3 day period in polycarbonate Makrolon type 3 cages (dimensions 26.5×15×42 cm) in an environmentally controlled, experimental room (ambient temperature 22-20° C.; relative humidity 50-60%; 12:12 light:dark cycle, lights on at 8:00), in groups of 15. Standard laboratory food (Ssniff M-Z) and filtered water were freely available. On the day before experiments the equipment produced “white noise” was turned on for 30 minutes and mice were weighted exact to 1 g. Animals were assigned randomly to treatment groups. All the experiments were performed by two observers unaware of the treatment applied between 9:00 and 14:00 on separate groups of animals. Mice were used only once and were killed immediately after the experiment.
The locomotor activity was recorded with an Opto M3 multi-channel activity monitor (MuttiDevice Software v.1.3, Columbus Instruments). The mice were individually placed in plastic cages (22×12×13 cm) for 30 minutes habituation period, and then the crossings of each channel (ambulation) were counted during 1 h with data recording every 5 minutes. The cages were cleaned up with 70% ethanol after examining each mouse. Drugs were administered to 10 mice per treatment group. Test compounds were given 30 minutes before the experiment. Dizocilpine was administered 30 minutes before the test.
Test compounds were prepared as a suspension in 1% aqueous solution of Tween 80, and dizocilpine was dissolved in distilled water immediately before administration. An injection volume of 10 ml/kg was used and all compounds were administered intraperitoneally (i.p.).

[3] = molecular target: T2, 5-HT reuptake (rat brain synaptosomes) (Rattus norvegicus, UniProt P31652); experiment: 5-HT reuptake, [3H]5-HT incorporation into rat brain synaptosomes; assay type: biochemical; details: 15 min/37° C., read-out: SERT IC50
T2 construct: measuring [^3H]5-HT incorporation into rat brain synaptosomes; from tissue; host or cells: rat brain synaptosomes
T2 sequence (P31652 whole entry): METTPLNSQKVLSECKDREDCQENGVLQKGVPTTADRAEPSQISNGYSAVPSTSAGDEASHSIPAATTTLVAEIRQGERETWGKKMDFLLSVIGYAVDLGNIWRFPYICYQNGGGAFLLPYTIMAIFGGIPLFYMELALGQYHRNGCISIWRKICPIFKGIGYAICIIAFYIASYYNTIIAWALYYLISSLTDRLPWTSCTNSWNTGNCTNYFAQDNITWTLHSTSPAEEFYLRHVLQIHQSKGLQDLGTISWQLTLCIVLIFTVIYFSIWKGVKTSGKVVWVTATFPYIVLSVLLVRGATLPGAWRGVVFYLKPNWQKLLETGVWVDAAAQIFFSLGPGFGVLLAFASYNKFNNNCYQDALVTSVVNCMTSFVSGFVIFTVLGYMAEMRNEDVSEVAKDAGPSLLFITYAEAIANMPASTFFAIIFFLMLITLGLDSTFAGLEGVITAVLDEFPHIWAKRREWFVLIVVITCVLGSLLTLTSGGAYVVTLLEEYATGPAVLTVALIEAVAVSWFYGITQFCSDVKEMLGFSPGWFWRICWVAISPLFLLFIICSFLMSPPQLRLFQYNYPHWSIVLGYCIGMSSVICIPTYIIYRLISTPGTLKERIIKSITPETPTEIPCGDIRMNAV
Method: 5-HT reuptake was tested according to Perovic, S. and Muller, W.E.G. (1995) Arzneim-Forsch. Drug Res., 45: 1145-1148 by measuring [^3H]5-HT incorporation into rat brain synaptosomes. Assay conditions are as follows:
Tracer: [^3H]5-HT (0.2 μCi/ml)
Incubation: 15 min/37° C.

SMILES | hERG [%] [1] [%] | MED* [mg/kg] (minimum effective dose) [2] | IC50 [3] [µM]
O=S(=O)(NC1CCN(CCCc2noc3cc(F)ccc23)CC1)c1cccc2ccccc12 [Compound 34, N-[1-[3-(6-Fluoro-1,2-benzoxazol-3-yl)propyl]-4-piperidine]-naphthalene-1-sulphonamide] | −1.1 |  | 
O=S(=O)(NC1CCN(CCCc2noc3cc(F)ccc23)C1)c1ccc2ccccc2c1 (stereo not shown) [Compound 21, N-[1-[3-(6-Fluoro-1,2-benzoxazol-3-yl)propyl]pyrrolidin-3-yl]naphthalene-2-sulphonamide] | 3.3 | 10 | 
O=S(=O)(NC1CN(CCOc2cccc3c2OCCO3)C1)c1cccc2ccccc12 [Compound 94, N-[1-[2-(2,3-Dihydro-1,4-benzodioxan-8-yloxy)ethyl]azetidin-3-yl]-naphthalene-1-sulphonamide] | 4.8 |  | 
O=S(=O)(NC1CCN(CCCc2noc3cc(F)ccc23)C1)c1csc2ccccc12 (stereo not shown) [Compound 26, N-[1-[3-(6-Fluoro-1,2-benzoxazol-3-yl)propyl]pyrrolidin-3-yl]-benzothiophene-3-sulphonamide] | 6.1 |  | 
O=S(=O)(NC1CCN(CCCc2noc3cc(F)ccc23)C1)c1cc2ccccc2s1 (stereo not shown) [Compound 25, N-[1-[3-(6-Fluoro-1,2-benzoxazol-3-yl)propyl]pyrrolidin-3-yl]-benzothiophene-2-sulphonamide] | 2.9 | 5 | 
O=S(=O)(N[C@@H]1CCN(CCCc2noc3cc(F)ccc23)C1)c1cc2ccccc2s1 [Compound 196, N-[(3R)-1-[3-(6-Fluoro-1,2-benzoxazol-3-yl)propyl]pyrrolidin-3-yl]benzo-thiophene-2-sulphonamide] |  | 2.5 | 
O=S(=O)(NC1CCN(CCCc2c[nH]c3ccc(Cl)cc23)C1)c1cccc(Cl)c1 (stereo not shown) [Compound 84, 3-Chloro-N-[1-[3-(5-chloro-1H-indol-3-yl)propyl]pyrrolidin-3-yl]benzenesulphonamide] |  |  | 0.064
O=S(=O)(NC1CCN(CCCc2c[nH]c3ccc(F)cc23)C1)c1ccc2ccccc2c1 (stereo not shown) [Compound 80, N-[1-[3-(5-Fluoro-1H-indol-3-yl)propyl]pyrrolidin-3-yl]naphthalene-2-sulphonamide] |  |  | 0.0021
